This note sets out measurements from patent US8563542B2 (Cyclacel Limited, priority 2007, dated 2013).

Broadly, the IC50 is the concentration that gives 50% inhibition.

Like-named read-outs stand apart in the source and are kept apart here.

The test addresses PLK1 (Homo sapiens, UniProt P53350). Description: PLK1 protein kinase assay (CDC25C phosphorylation, [γ-32P]-ATP). The test is classed as biochemical.
The mark [1] stands for this setting: Table 2, PLK1 IC50, class symbols, read-out: PLK1 IC50.

Sequence of PLK1 (P53350 whole entry): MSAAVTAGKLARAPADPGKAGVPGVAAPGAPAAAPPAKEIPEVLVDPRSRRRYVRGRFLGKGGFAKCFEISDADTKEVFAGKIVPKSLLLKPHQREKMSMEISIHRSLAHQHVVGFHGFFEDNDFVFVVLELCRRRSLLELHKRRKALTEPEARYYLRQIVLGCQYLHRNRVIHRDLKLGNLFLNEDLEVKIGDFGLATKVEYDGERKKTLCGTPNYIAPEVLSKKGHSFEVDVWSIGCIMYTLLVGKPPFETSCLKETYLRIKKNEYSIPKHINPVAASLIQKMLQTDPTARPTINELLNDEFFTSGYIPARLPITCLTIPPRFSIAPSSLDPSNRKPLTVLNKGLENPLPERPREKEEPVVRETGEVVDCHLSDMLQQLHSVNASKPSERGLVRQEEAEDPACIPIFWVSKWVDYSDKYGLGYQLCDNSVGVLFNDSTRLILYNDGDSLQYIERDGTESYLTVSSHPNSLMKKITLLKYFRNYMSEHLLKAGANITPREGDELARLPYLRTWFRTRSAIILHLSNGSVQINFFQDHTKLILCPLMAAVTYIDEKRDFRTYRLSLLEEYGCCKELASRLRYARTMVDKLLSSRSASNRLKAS

Take `CCC(CC)N1CCC(=O)N(C)c2cnc(Nc3ccc(C(=O)NC4CCN(C)CC4)cc3OC)nc21` [compound 24, 4-[9-(1-Ethyl-propyl)-5-methyl-6-oxo-6,7,8,9-tetrahydro-5H-pyrimido[4,5-b][1,4]diazepin-2-ylamino]-3-methoxy-N-(1-methyl-piperidin-4-yl)-benzamide]: the IC50 (Table 1, read-out: PLK1 IC50) is less than 10000 nM. On to `COc1cc(C(=O)NC2CCN(C)CC2)ccc1Nc1ncc2c(n1)N(C1CCOCC1)CCC(=O)N2C` [compound 26, 3-Methoxy-4-[5-methyl-6-oxo-9-(tetrahydro-pyran-4-yl)-6,7,8,9-tetrahydro-5H-pyrimido[4,5-b][1,4]diazepin-2-ylamino]-N-(1-methyl-piperidin-4-yl)-benzamide], for which the IC50 (Table 1, read-out: PLK1 IC50) is less than 1000 nM. The same measure, in the same setting: under `CCN1C(=O)C(C)CN(C2CCCC2)c2nc(Nc3ccc(C(=O)NC4CCN(C)CC4)cc3OC)ncc21` (centres unmarked) [compound 28, 4-(9-Cyclopentyl-5-ethyl-7-methyl-6-oxo-6,7,8,9-tetrahydro-5H-pyrimido[4,5-b][1,4]diazepin-2-ylamino)-3-methoxy-N-(1-methyl-piperidin-4-yl)-benzamide] stands less than 1000 nM. The same measure, in the same setting: for `COc1cc(C(=O)NC2CCN(C)CC2)ccc1Nc1ncc2c(n1)N(Cc1ccccc1)CCC(=O)N2C` [compound 29, 4-(9-Benzyl-5-methyl-6-oxo-6,7,8,9-tetrahydro-5H-pyrimido[4,5-b][1,4]diazepin-2-ylamino)-3-methoxy-N-(1-methyl-piperidin-4-yl)-benzamide] the value was less than 10000 nM; for `COc1cc(C(=O)NC2CCN(C)CC2)ccc1Nc1ncc2c(n1)N(c1ccccc1)CCC(=O)N2C` [compound 30, 3-Methoxy-4-(5-methyl-6-oxo-9-phenyl-6,7,8,9-tetrahydro-5H-pyrimido[4,5-b][1,4]diazepin-2-ylamino)-N-(1-methyl-piperidin-4-yl)-benzamide], less than 1000 nM; for `COc1cc(C(=O)NC2CCN(C)CC2)ccc1Nc1ncc2c(n1)N(C1CCCC1)CC1(CC1)C(=O)N2C` [compound 31], less than 100 nM.

Turning to `COc1cc(C(=O)NC2CCN(C)CC2)ccc1Nc1ncc2c(n1)N(C1CCCC1)C(C)CC(=O)N2C` (centres unmarked) [compound 33, 4-(9-Cyclopentyl-5,8-dimethyl-6-oxo-6,7,8,9-tetrahydro-5H-pyrimido[4,5-b][1,4]diazepin-2-ylamino)-3-methoxy-N-(1-methyl-piperidin-4-yl)-benzamide], the half-inhibitory concentration (IC50) was less than 1000 nM. Consider `COc1cc(C(=O)NC2CCN(C)CC2)ccc1Nc1ncc2c(n1)N(C1CCCC1)C(C)CC(=O)N2` (centres unmarked) [compound 34, 4-(9-Cyclopentyl-8-methyl-6-oxo-6,7,8,9-tetrahydro-5H-pyrimido[4,5-b][1,4]diazepin-2-ylamino)-3-methoxy-N-(1-methyl-piperidin-4-yl)-benzamide], for which the IC50 (Table 1, read-out: PLK1 IC50) is less than 1000 nM. `COc1cc(C(=O)NC2CCN(C)CC2)ccc1Nc1ncc2c(n1)N(C1CCCCC1)C(C)CC(=O)N2` (centres unmarked) [compound 35, 4-(9-Cyclohexyl-8-methyl-6-oxo-6,7,8,9-tetrahydro-5H-pyrimido[4,5-b][1,4]diazepin-2-ylamino)-3-methoxy-N-(1-methyl-piperidin-4-yl)-benzamide]: the IC50 (Table 1, read-out: PLK1 IC50) is less than 1000 nM. Still for that read-out and setting: under `COc1cc(C(=O)NC2CCN(C)CC2)ccc1Nc1ncc2c(n1)N(C1CCCC1)CCC(=O)N2` [compound 36, 4-(9-Cyclopentyl-6-oxo-6,7,8,9-tetrahydro-5H-pyrimido[4,5-b][1,4]diazepin-2-ylamino)-3-methoxy-N-(1-methyl-piperidin-4-yl)-benzamide] stands less than 10000 nM; under `CC1CC(=O)Nc2cnc(Nc3ccc(C(=O)NC4CCN(C)CC4)cc3)nc2N1C1CCCC1` (centres unmarked) [compound 38, 4-(9-Cyclopentyl-8-methyl-6-oxo-6,7,8,9-tetrahydro-5H-pyrimido[4,5-b][1,4]diazepin-2-ylamino)-N-(1-methyl-piperidin-4-yl)-benzamide], less than 1000 nM; under `COc1cc(C(=O)NC2CCN(C)CC2)ccc1Nc1ncc2c(n1)N(C1CCCCC1)CCC(=O)N2` [compound 39, 4-(9-Cyclohexyl-6-oxo-6,7,8,9-tetrahydro-5H-pyrimido[4,5-b][1,4]diazepin-2-ylamino)-3-methoxy-N-(1-methyl-piperidin-4-yl)-benzamide], less than 10000 nM. With `CCC1CN(C2CCCC2)c2nc(Nc3ccc(C(=O)NC4CCN(C)CC4)cc3OC)ncc2N(C)C1=O` (centres unmarked) [compound 40, 4-(9-Cyclopentyl-7-ethyl-5-methyl-6-oxo-6,7,8,9-tetrahydro-5H-pyrimido[4,5-b][1,4]diazepin-2-ylamino)-3-methoxy-N-(1-methyl-piperidin-4-yl)-benzamide], the half-maximal inhibitory concentration (IC50) under setting [1] is less than 100 nM. Same read-out and setting: under `COc1cccc(N2CCC(=O)N(C)c3cnc(Nc4ccc(C(=O)NC5CCN(C)CC5)cc4OC)nc32)c1` [compound 48, 3-Methoxy-4-[9-(3-methoxy-phenyl)-5-methyl-6-oxo-6,7,8,9-tetrahydro-5H-pyrimido[4,5-b][1,4]diazepin-2-ylamino]-N-(1-methyl-piperidin-4-yl)-benzamide] stands less than 10000 nM.

Turning to `COc1cc(C(=O)NC2CCN(C)CC2)ccc1Nc1ncc2c(n1)N(c1ccccc1F)CCC(=O)N2C` [compound 52, 4-[9-(2-Fluoro-phenyl)-5-methyl-6-oxo-6,7,8,9-tetrahydro-5H-pyrimido[4,5-b][1,4]diazepin-2-ylamino]-3-methoxy-N-(1-methyl-piperidin-4-yl)-benzamide], under setting [1], the IC50 was less than 1000 nM.

For `CCOc1cc(C(=O)NC2CCN(C)CC2)ccc1Nc1ncc2c(n1)N(C1CCCC1)CCC(=O)N2C` [compound 59, 4-(9-Cyclopentyl-5-methyl-6-oxo-6,7,8,9-tetrahydro-5H-pyrimido[4,5-b][1,4]diazepin-2-ylamino)-3-ethoxy-N-(1-methyl-piperidin-4-yl)-benzamide], the IC50 under setting [1] was less than 1000 nM. For `COc1ccccc1Nc1ncc2c(n1)N(C1CCCC1)CCC(=O)N2C` [compound 60, 9-Cyclopentyl-2-(2-methoxy-phenylamine)-5-methyl-5,7,8,9-tetrahydro-pyrimido[4,5-b][1,4]diazepin-6-one], the IC50 under setting [1] is less than 1000 nM.

As to `CN1C(=O)CCN(C2CCCC2)c2nc(NCc3ccccc3)ncc21` [compound 62, 2-Benzylamino-9-cyclopentyl-5-methyl-5,7,8,9-tetrahydro-pyrimido[4,5-b][1,4]diazepin-6-one], the IC50 under setting [1] is less than 1000 nM. For the compound `COc1cc(C(=O)NC2CCN(C)CC2)ccc1Nc1ncc2c(n1)N(CC1CC1)CCC(=O)N2C` [compound 65, 4-(9-Cyclopropylmethyl-5-methyl-6-oxo-6,7,8,9-tetrahydro-5H-pyrimido[4,5-b][1,4]diazepin-2-ylamino)-3-methoxy-N-(1-methyl-piperidin-4-yl)-benzamide], the IC50 under setting [1] is less than 100 nM. Turning to `CCCCN1CCC(=O)N(C)c2cnc(Nc3ccc(C(=O)NC4CCN(C)CC4)cc3OC)nc21` [compound 66, 4-(9-Butyl-5-methyl-6-oxo-6,7,8,9-tetrahydro-5H-pyrimido[4,5-b][1,4]diazepin-2-ylamino)-3-methoxy-N-(1-methyl-piperidin-4-yl)-benzamide], the IC50 under setting [1] is less than 1000 nM. Same read-out and setting: for `COc1cc(C(=O)NC2CCN(C)CC2)ccc1Nc1ncc2c(n1)N(C(C)C)CCC(=O)N2C` [compound 67, 4-(9-Isopropyl-5-methyl-6-oxo-6,7,8,9 tetrahydro-5H-pyrimido[4,5-b][1,4]diazepin-2-ylamino)-3-methoxy-N-(1-methyl-piperidin-4-yl)-benzamide] the value was less than 100 nM; for `COc1cc(C(=O)NC2CCN(C)CC2)ccc1Nc1ncc2c(n1)N(CCC(C)C)CCC(=O)N2C` [compound 68, 3-Methoxy-4-[5-methyl-9-(3-methyl-butyl)-6-oxo-6,7,8,9-tetrahydro-5H-pyrimido[4,5-b][1,4]diazepin-2-ylamino]-N-(1-methyl-piperidin-4-yl)-benzamide], less than 1000 nM. In the case of `COc1cc(C(=O)NC2CCN(C)CC2)ccc1Nc1ncc2c(n1)N(CC1CCCC1)CCC(=O)N2C` [compound 69, 4-(9-Cyclopentylmethyl-5-methyl-6-oxo-6,7,8,9-tetrahydro-5H-pyrimido[4,5-b][1,4]diazepin-2-ylamino)-3-methoxy-N-(1-methyl-piperidin-4-yl)-benzamide], the IC50 under setting [1] is less than 1000 nM. Still for that read-out and setting: under `COc1ccc(Nc2ncc3c(n2)N(C2CCCC2)CCC(=O)N3C)c(OC)c1` [compound 71, 9-Cyclopentyl-2-(2,4-dimethoxy-phenylamino)-5-methyl-5,7,8,9-tetrahydro-pyrimido[4,5-b][1,4]diazepin-6-one] stands less than 100 nM; under `COc1ccc(CNc2ncc3c(n2)N(C2CCCC2)CCC(=O)N3C)cc1` [compound 92, 9-Cyclopentyl-2-(4-methoxy-benzylamino)-5-methyl-5,7,8,9-tetrahydro-pyrimido[4,5-b][1,4]diazepin-6-one], less than 10000 nM. `CN1C(=O)CCN(C2CCCC2)c2nc(NCc3cccs3)ncc21` [compound 94, 9-Cyclopentyl-5-methyl-2-[(thiophen-2-ylmethyl)-amino]-5,7,8,9-tetrahydro-pyrimido[4,5-b][1,4]diazepin-6-one]: the IC50 under setting [1] is less than 10000 nM.

As for `COc1cc(C(=O)Nc2ccccc2)ccc1Nc1ncc2c(n1)N(C1CCCC1)CCC(=O)N2C` [compound 95, 4-(9-Cyclopentyl-5-methyl-6-oxo-6,7,8,9-tetrahydro-5H-pyrimido[4,5-b][1,4]diazepin-2-ylamino)-3-methoxy-N-phenyl-benzamide], the IC50 under setting [1] was less than 10000 nM. The same measure, in the same setting: under `CN1C(=O)CCN(C2CCCC2)c2nc(Nc3cccc4cc[nH]c34)ncc21` [compound 98, 9-Cyclopentyl-2-(1H-indol-7-ylamino)-5-methyl-5,7,8,9-tetrahydro-pyrimido[4,5-b][1,4]diazepin-6-one] stands less than 1000 nM. Still for that read-out and setting: under `COc1cc(C(=O)NC2CCN(C)CC2)ccc1Nc1ncc2c(n1)N(C(C)C)CC1(CC1)C(=O)N2C` [compound 99, 4-(9-Isopropyl-5-methyl-6-oxo-6,7,8,9-tetrahydro-5H-spiro[pyrimido[4,5-b][1,4]diazepin-3,1′-cyclopropane]-2-ylamino)-3-methoxy-N-(1-methyl-piperidin-4-yl)-benzamide] stands less than 100 nM.
